{
  "source": "ChEMBL document CHEMBL1137887",
  "about": "“Application of the Stille coupling reaction to the synthesis of C2-substituted endo-exo unsaturated pyrrolo[2,1-c][1,4]benzodiazepines (PBDs)” (2004)",
  "data": [
    {"tested_on": "Panel NCI-60 (60 carcinoma cell lines)", "experiment": "In vitro mean of concentrations that inhibits cell growth across 60 cell lines of the NCI panel after incubation for 48 hr at 37 degree C was measured using SRB assay", "type": "functional", "details": "Homo sapiens", "units": {"GI50": "nM"}, "values": [
      {"smiles": "COc1cc2c(cc1OC)C(=O)N1C=C(C#Cc3ccccc3)C[C@H]1C=N2", "GI50": "< 10"},
      {"smiles": "COc1cc2c(cc1OC)C(=O)N1C=C(c3cccs3)C[C@H]1C=N2", "GI50": 20},
      {"smiles": "COc1cc2c(cc1OC)C(=O)N1C=C(c3ccccc3)C[C@H]1C=N2", "GI50": "< 10"},
      {"smiles": "COc1cc2c(cc1OC)C(=O)N1C=C(c3ccco3)C[C@H]1C=N2", "GI50": "< 10"},
      {"smiles": "COc1cc2c(cc1OC)C(=O)N1CCC[C@H]1C=N2", "GI50": 2390},
      {"smiles": "COc1cc2c(cc1OC)C(=O)N1C=CC[C@H]1C=N2", "GI50": 1280},
      {"smiles": "C=CC1=CN2C(=O)c3cc(OC)c(OC)cc3N=C[C@@H]2C1", "GI50": 120}
    ]}
  ]
}
